# Assay results taken from the METLIN SMRT retention time set (Domingo-Almenara et al. 2019).
# Test: gradient 5% acetonitrile 3 min, to 50% in 2 min, to 85% in 15 min, held 3 min, 100 µL/min
# Details: column: Zorbax Extend-C18 2.1 x 50 mm; eluents: water / acetonitrile, 0.1% formic acid
# Method in brief: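 Using water and acetonitrile that each contained 0.1% formic acid, mixtures of ~100 pure standards were separated at 100 μL/min on a Zorbax Extend-C18 column (2.1 × 50 mm, 1.8 μm). The HPLC fed a quadrupole time-of-flight mass spectrometer working in positive and negative ionization mode, with dead and dwell volumes of 40 μL and 900 μL. Data were acquired over 3 months. Retention time was read from computationally picked adduct peaks after manual inspection of each.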
row,RP-LC retention time [s],Compound
1,1030,O=C(Nc1ccccc1C(F)(F)F)N1CCCC1c1nc(-c2ccc(F)cc2F)no1 (configuration not stated)
2,1130,O=C(c1nnc(-c2ccc(S(=O)(=O)N3CCCC3)cc2)o1)N1CCC(Cc2ccccc2)CC1
3,905,Cc1cc(C)cc(Oc2nccn3c(=O)n(CC(=O)NC4CCCCC4)nc23)c1
4,623,CCN1C(=O)NC(c2ccc(C)cc2C)C2=C1CN(CCC(=O)N1CCCC1)C2=O (configuration not stated)
5,606,O=C(O)CCn1nnc2ccccc2c1=O
6,871,CCc1nc(CN2C(=O)COc3cc(S(=O)(=O)N4CCN(c5ncccn5)CC4)c(C)cc32)no1
7,849,COc1ccc(-n2c(=O)n(C)c(=O)c3cc(C(=O)NCc4ccccc4F)cnc32)cc1
8,626,O=C(Nc1cccc([N+](=O)[O-])c1)NC1CCS(=O)(=O)C1 (configuration not stated)
9,1140,Cc1sc(C)c(S(=O)(=O)Nc2ccccc2Cl)c1-c1cc(C(F)(F)F)on1
10,832,COc1ccc(CC2C(=O)Nc3ccccc32)cc1Cl (configuration not stated)
11,748,CC1CCCN(C(=O)C2c3ccccc3CC(=O)N2C)C1 (configuration not stated)
12,723,COc1ccc(-n2ccn3cc(-c4ccc(OC)c(OC)c4)nc3c2=O)cc1
13,875,Cc1nc(Nc2ccc(F)cn2)sc1C(=O)N1CCN(c2ccccc2)CC1
14,599,CCOC(=O)C1CCc2sc(NC(=O)CCc3csc4nc(C5CC5)cn34)nc21 (configuration not stated)
15,800,CCN1C(=O)CCc2cc(NC(=O)c3ccc(C)s3)ccc21
16,909,COc1ccc(Cl)cc1C(=O)N1CCN(c2ccc(-c3nc(C)cs3)cn2)CC1
17,921,COc1ccc(Cl)cc1CC1C(=O)Nc2ccccc21 (configuration not stated)
18,1240,Cc1cccc(-c2nc(Cn3nnc(-c4nc(-c5ccc6c(c5)OCO6)no4)c3C)c(C)o2)c1
19,835,O=C(NCC(=O)N1CCCc2ccccc21)c1ccccc1Cl

row,RP-LC retention time [s],Compound
1,882,CCCCNc1nc2c(c(=O)n(C)c(=O)n2C)n1CC(O)COc1ccccc1 (configuration not stated)
2,676,COc1ccc(-n2nc(C(=O)N3CCN(c4ccccn4)CC3)c3c4ccccc4n(C)c3c2=O)cc1
3,669,Cc1cc(=O)n(CC(=O)N(C)c2ccccc2)c(N2CCCCC2)n1
4,949,O=C(c1cccs1)N1CCN(c2ccc(-c3noc(C4CC4)n3)cc2)CC1
5,589,CCn1cc(CCN2CCN(C(=O)c3cccs3)CC2)c2cccnc21
6,1020,Cc1ccc(-c2nnc(-c3nn(C)c4c3CN(S(=O)(=O)Cc3ccccc3Cl)CC4)o2)cc1
7,732,O=C(NCc1ccccn1)c1nnc(-c2ccc(S(=O)(=O)N3CCCCC3)cc2)o1
8,661,O=C(CNC(=O)c1ccc(=O)[nH]c1)NCc1ccc(OCc2ccccc2)cc1
9,636,CCn1nc(C)c(CCNC(=O)c2ccc3c(c2)NC(=O)C2CCCCN32)c1C (configuration not stated)
10,712,O=C(Cc1cccs1)N1CCCCC1c1nncn1-c1ccccc1 (configuration not stated)
11,1040,CCOC(=O)CNC(=O)Nc1ccc(-c2nc(-c3cc(C)ccc3C)co2)cc1
12,748,COc1ccc(-c2cc(=O)n(CC(=O)Nc3cccc4nsnc34)cn2)cc1
13,620,COC(=O)CNC(=O)Nc1cc(F)c2nc(N3CCOCC3)ccc2c1
14,576,Cc1cncn(CC(=O)NC2CCCC2)c1=O
15,716,COCCc1noc([C@@H]2CC(F)(F)CN2C(=O)c2ccco2)n1
16,682,COc1ccc2c(c1)C=C(C(=O)N1CCN(Cc3ccc(OC)c(OC)c3OC)CC1)CO2
17,913,CCOc1ccc(NC(=O)c2c(Cl)ccc(Cl)c2OC)cc1
18,805,COC(=O)c1ccc(NC(=O)CSc2ccc(NC(=O)c3ccccc3F)nn2)cc1
